The source of these data is paper PMC8072286, “Gcn5-Related N-Acetyltransferases (GNATs) With a Catalytic Serine Residue Can Play Ping-Pong Too” (Frontiers in Molecular Biosciences, 2021).

The assay deals with T1, PA3944 (Pseudomonas aeruginosa, UniProt Q9HX72).
T1 construct: heterologous expression; N-terminal polyhistidine tag kept for kinetics, removed for crystallization; monomer in solution
Description: X-ray crystal structure ([…] Å). Type of assay: binding. The conditions noted are these: co-crystallized with 5 mM AcCoA, donor site.

Structures are written as SMILES.

T1 sequence (Q9HX72 whole entry): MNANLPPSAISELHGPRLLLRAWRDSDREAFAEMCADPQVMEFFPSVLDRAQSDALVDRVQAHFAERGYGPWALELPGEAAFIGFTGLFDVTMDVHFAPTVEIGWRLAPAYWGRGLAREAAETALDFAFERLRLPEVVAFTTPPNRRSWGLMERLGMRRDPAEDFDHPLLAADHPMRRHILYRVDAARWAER

For `CC(=O)SCCNC(=O)CCNC(=O)[C@H](O)C(C)(C)COP(=O)(O)OP(=O)(O)OC[C@H]1O[C@@H](n2cnc3c(N)ncnc32)[C@H](O)[C@@H]1OP(=O)(O)O` [AcCoA], for the setting “AcCoA modeled in chain B”, the “X-ray crystal structure (1.80 Å)” value is “we modeled CoA in chain A and AcCoA in chain B”. On to `CC(C)(COP(=O)(O)OP(=O)(O)OC[C@H]1O[C@@H](n2cnc3c(N)ncnc32)[C@H](O)[C@@H]1OP(=O)(O)O)[C@@H](O)C(=O)NCCC(=O)NCCS` [CoA], for which the “X-ray crystal structure (1.80 Å)” value (CoA modeled in chain A) was “we modeled CoA in chain A and AcCoA in chain B”.
